Laboratory results published in patent US10995070B2, “Acetyl-CoA carboxylase modulators” (Monsanto Technology LLC, priority 2013, dated 2021).

Tests used:
[1] = biological target: Ustilago maydis acetyl CoA carboxylase (ACCase) (Ustilago maydis, UniProt A0A0D1DYD5); assay: ACCase enzymatic assay (coupled PK/LDH, NADH OD340); format: biochemical; details: read-out: ACCase Inhibitory Activity IC50
Procedure: Ustilago maydis acetyl CoA carboxylase (ACCase) was cloned, expressed, and purified as described (Weatherly et al, Biochem. J., 2004) and the test compounds were tested in a 96-well plate format. Primary in vitro screening consisted of obtaining dose response data at 100, 33, 10, and 1 μM inhibitor. Actives in the primary screen were re-tested to establish IC50 values.
Direct detection of the conversion of acetyl CoA to malonyl CoA by ACCase was not feasible, but during this process ATP is converted to ADP which allowed for detection through a standard reaction coupling with ADP recycling to the oxidation of NADH. Thus, ACCase activity was measured via kinetic OD340 measurements of the conversion of NADH to NAD in a coupled reaction involving the conversion of phosphoenolpyruvate (PEP) to lactate.
The complete 200 ul reaction mixture contained 52.5 mM HEPES (pH8), 2.625 mM MgCl2, 1 mM ATP, 0.525 mM DTT, 11 mM NaHCO3, 1% DMSO with or without inhibitor, 1× pyruvate kinase/lactate dehydrogenase (PK/LDH), 0.3 mM NADH, 0.5 mM PEP, and 5 μg ACCase. The reactions were incubated at 30° C. for 10 minutes and then initiated by the addition of 0.33 mM acetyl CoA. The initiated reactions were read immediately via plate reader at OD340 and kinetic readings were acquired every 20 s for 15 minutes while keeping the temperature at 30° C.
A slope of the kinetic curve was determined by using the 2 to 7 minute data which was then calculated as percent inhibition relative to the no inhibitor control.
The primary screens were conducted in duplicate and the IC50's conducted in triplicate. Averages were reported along with standard deviation calculation to generate error bars.
Each plate contained its own controls and consisted of a DMSO only control, 5-fold titration series of soraphen from 2 μM to 3.2 nM, and an ADP coupled reaction control. […]
A slope of the kinetic curve was determined by using the 2 to 7 minute data which was then calculated as percent inhibition relative to the no inhibitor control. Those compounds which had no significant PK/LDH inhibition at or above the IC50 in the ACCase assay, were considered to be valid modulators of only ACCase.

Botrytis cinerea = assay: Fungal growth inhibition assay, B. cinerea; format: cell-based; details: 48 h
Source text: Spores were isolated from previously sub-cultured plates of Botrytis cinerea, Phytophthora capsici, Fusarium moniliforme, Fusarium viguliforme, Collectotrichum graminicola, and Diplodia maydis. All spores were filtered and collected in a sterile glass bowl to isolate the spores from the mycelia. The isolation and sub-culture plate condition for each pathogen is described below.
Spore isolation for B. cinerea: A 2-3 week old V8 (17%)+CaCO3 (3 g/L)+20 g agar plate was removed from room temperature and the mycelia were treated with 5-10 ml of filter sterilized Triton X 100 (0.05%). The mycelia were scraped to re-suspend the spores. The spores were then collected in a sterile filter bowl containing a fluted piece of filter paper and poured into a conical tube.
After spore isolation, pathogen spores were counted on a hemocytometer to calculate the spores/ml. In 17% V8 liquid media containing 3 g/L CaCO3, isolated spores were diluted to individual concentrations based on the growth curves at 48 hours of each pathogen. The spore concentrations for each pathogen were as follows: B. cinerea—10,000 sp/ml; P. capsici—300 sp/ml; F. monliforme—500 sp/ml; F. virguliforme—500 sp/ml; C. graminicola—3,000 sp/ml; and D. maydis—3,000 sp/ml.
Chemistry stocks were dissolved in DMSO at 2.5 mg/ml. Chemistry was diluted in a 96-well stock plate in five-fold dilutions to obtain a final concentration of 50, 10, and 2 ppm in vitro. The final concentration of the positive control after the five-fold dilutions was as follows: soraphen—0.5, 0.1, and 0.02 ppm. Negative controls on each plate included 2% DMSO, water containing spores and media, and a blank for background subtraction.
In a 96-well plate the spore solution, chemistries, and controls were combined to make the final solution concentrations mentioned above. Upon addition of the chemistry, an OD600 reading was done to assess chemical precipitation. […] Plate readings were repeated at 24 and 48 hrs. […]

Chain of Ustilago maydis acetyl CoA carboxylase (ACCase) (A0A0D1DYD5 1-2185): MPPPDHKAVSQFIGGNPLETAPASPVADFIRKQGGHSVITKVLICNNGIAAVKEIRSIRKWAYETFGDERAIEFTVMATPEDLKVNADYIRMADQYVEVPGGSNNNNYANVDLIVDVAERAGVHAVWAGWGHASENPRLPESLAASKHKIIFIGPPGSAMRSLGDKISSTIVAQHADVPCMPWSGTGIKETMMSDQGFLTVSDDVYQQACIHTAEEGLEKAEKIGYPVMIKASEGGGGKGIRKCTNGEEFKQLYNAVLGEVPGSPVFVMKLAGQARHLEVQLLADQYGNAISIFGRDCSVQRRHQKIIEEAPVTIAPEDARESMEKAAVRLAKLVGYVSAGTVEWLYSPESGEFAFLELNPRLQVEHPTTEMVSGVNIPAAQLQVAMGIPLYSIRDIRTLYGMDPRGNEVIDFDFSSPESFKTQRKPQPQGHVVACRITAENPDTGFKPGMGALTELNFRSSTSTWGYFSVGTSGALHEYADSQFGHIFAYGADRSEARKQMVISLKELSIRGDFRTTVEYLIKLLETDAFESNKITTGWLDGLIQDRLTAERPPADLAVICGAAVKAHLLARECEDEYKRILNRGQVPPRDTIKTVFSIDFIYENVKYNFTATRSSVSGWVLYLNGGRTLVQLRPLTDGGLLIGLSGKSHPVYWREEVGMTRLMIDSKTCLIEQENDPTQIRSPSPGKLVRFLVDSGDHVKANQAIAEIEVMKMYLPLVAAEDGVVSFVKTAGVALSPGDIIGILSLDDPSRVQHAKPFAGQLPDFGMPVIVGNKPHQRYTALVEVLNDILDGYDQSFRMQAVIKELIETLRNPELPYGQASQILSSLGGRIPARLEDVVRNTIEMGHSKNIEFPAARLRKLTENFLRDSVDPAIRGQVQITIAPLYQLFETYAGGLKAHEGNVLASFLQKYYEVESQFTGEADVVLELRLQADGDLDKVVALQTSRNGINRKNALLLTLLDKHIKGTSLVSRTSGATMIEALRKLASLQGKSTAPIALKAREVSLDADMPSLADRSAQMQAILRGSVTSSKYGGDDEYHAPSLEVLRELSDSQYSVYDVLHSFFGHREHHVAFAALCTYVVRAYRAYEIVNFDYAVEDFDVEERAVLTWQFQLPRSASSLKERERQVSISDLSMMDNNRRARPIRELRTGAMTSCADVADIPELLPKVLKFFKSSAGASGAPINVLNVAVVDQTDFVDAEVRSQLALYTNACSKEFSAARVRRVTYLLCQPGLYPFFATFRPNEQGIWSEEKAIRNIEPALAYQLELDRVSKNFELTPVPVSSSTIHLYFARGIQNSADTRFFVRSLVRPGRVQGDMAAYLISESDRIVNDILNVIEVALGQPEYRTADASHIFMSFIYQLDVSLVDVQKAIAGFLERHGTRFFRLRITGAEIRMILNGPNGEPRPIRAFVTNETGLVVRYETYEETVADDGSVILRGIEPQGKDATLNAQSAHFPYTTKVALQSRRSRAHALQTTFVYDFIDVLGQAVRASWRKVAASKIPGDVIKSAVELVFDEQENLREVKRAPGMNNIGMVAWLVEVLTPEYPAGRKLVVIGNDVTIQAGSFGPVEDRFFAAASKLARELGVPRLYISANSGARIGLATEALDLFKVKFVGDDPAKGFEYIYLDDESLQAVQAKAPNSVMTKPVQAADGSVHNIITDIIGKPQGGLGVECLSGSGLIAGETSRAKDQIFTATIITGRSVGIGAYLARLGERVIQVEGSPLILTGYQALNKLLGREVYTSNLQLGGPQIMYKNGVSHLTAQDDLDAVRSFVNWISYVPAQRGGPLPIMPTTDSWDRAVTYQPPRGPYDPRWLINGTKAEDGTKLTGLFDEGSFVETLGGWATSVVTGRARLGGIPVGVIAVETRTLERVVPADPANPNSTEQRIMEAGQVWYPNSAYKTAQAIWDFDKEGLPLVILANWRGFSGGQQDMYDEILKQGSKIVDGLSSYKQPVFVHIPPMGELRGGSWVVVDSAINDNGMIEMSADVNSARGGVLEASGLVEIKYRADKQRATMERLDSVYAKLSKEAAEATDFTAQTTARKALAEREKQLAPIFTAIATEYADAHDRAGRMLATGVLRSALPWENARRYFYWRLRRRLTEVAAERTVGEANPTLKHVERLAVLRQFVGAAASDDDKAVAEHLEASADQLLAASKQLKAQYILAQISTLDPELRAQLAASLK

Row | Structure (SMILES) | IC50 [1] | inhibition at 2 ppm (Botrytis cinerea; 2 ppm) | inhibition at 10 ppm (Botrytis cinerea; 10 ppm) | inhibition at 50 ppm (Botrytis cinerea; 50 ppm)
1 | O=C(O)Cc1ccc(-c2nc3ccccc3c(-c3ccccc3)c2Cl)s1 [Formula Ib-ii, 2-(5-(3-chloro-4-phenylquinolin-2-yl)thiophen-2-yl)acetic acid] | 110 nM | – | – | –
2 | O=C(O)Cc1ccc(-c2cc(-c3ccccc3)c3ccccc3n2)s1 [Formula Ib-iv, 2-(5-(4-phenylquinolin-2-yl)thiophen-2-yl)acetic acid] | 145 nM | 0% | 1% | 42%
